# According to US20240368149A1, “ANALOGS OF XANOMELINE” (Terran Biosciences Inc., priority 2023, published 2024):
# Where “and” joins values, the source holds several entries; their conditions need not be identical. Identical values can stand only once.
# Legend:
# Assay type in all cases: in vivo, male Sprague-Dawley (SD) rats
# [1] = Rat PK: plasma xanomeline after subcutaneous (SC) dosing of xanomeline, prodrugs or pamoate salts at 5 mg/kg or 3.5 mg/kg (Example A-2); conditions: parent xanomeline dosed SC; for Tmax / Cmax / AUC(0-inf) / AUC(0-t) / half-life: male, Sprague-Dawley; for AUC(0-inf): read-out: Xanomeline (SC) AUC0-inf; for AUC(0-t): read-out: Xanomeline (SC) AUC0-last; for half-life: read-out: Xanomeline (SC) T1/2 (converted)
# Description: (§1) Samples were sent for method optimization and measurement of parent compound (xanomeline) via unique calibration lines and following acceptance QC's. Dose formulation concentrations were also measured, and PK parameters were determined (Cmax (ng/mL), Tmax (hr), Cl (ml/min/kg), Vdss (L/kg), t½ (hr), AUC0-t (ng/mL*hr), AUC0-inf (ng/mL*hr), MRT (hr), Bioavailability (% F) where warranted) using WinNon Lin software. Data (including bioanalytical results and assay performance) were reported in a tabulated format.
# (§2) Formulation for SC administration: For SC dosing, xanomeline and xanomeline prodrugs were formulated as solution in 10% DMSO/90% HPCD (20% in water) to a concentration of 2.5 mg free metabolite material/mL or 1.75 mg free metabolite material/mL. This provided a dose of 5 mg free metabolite/kg or 3.5 mg free metabolite/kg, respectively, when administered SC in 2 mL/kg dosing volumes.
# (§3) The pharmacokinetic properties of the synthesized xanomeline prodrugs after subcutaneous administration in a rat model were assessed. The concentration of xanomeline was measured in each rat at various sampling timepoints after subcutaneous administration of xanomeline or the synthesized xanomeline prodrugs to rats.
# Dose formulations were made at equivalent concentrations of active compound (xanomeline) adjusted for molecular weight of the compounds. The synthesized xanomeline prodrugs were dosed at 5 mg/kg subcutaneous (SC) nominal dose except for xanomeline oxyisobutyl pivalate chloride prodrug and xanomeline oxypropyl pivalate chloride prodrug, which were dosed at 3.5 mg/kg subcutaneous. Nominal doses were used in PK parameter determinations. The parent compound (xanomeline) was dosed at 5 mg/kg subcutaneous (SC).
# [2] = Rat PK: plasma xanomeline after single subcutaneous (SC) dosing of xanomeline or xanomeline prodrugs at 1 mg/kg (Example A-1); conditions: xanomeline analyte in plasma; for AUC(0-inf): read-out: AUCINF_obs; for half-life: read-out: T½ (converted)
# Description: A pharmacokinetic (PK) study was performed in three male Sprague-Dawley (SD) rats following subcutaneous (SC) administration of xanomeline or test compounds (prodrugs of xanomeline) at 1 mg/kg. Parent compound (xanomeline) was measured in plasma.
# as §1, with “t½(hr),” for “t½ (hr),”, “format” for “format.”
# • Step 1: A stock solution of the compound(s) were prepared to 1 mg/ml in DMSO • Step 2: A 10,000 ng/mL matched matrix standard was prepared using the stock solution(s) • Step 3: Calibration standards in matched matrix were prepared between 10,000 ng/ml and 0.5 ng/mL using serial dilution • Step 4: QC samples were prepared in matched matrix at 4000, 800, 400, 40 and 10 ng/mL Calibration Standards:
# • Step 1: A stock of the IS was diluted to 1 mg/ml in DMSO • Step 2: An ISY is made by diluting the stock to 10 μg/ml in DMSO • Step 3: An ISZ is made by diluting the ISY to 25 ng/ml in 0.1% formic acid in acetonitrile
# (§4) • Step 1: Add 10 μL of the standards, QCs and samples to a 96-well plate (extraction plate) • Step 2: To each standard, QC and test sample, add 100 μL of ISZ • Step 3: Sonicate for 2 min then mix the plate for approximately 2 min at 1200 rpm on a plate shaker • Step 4: Centrifuge the plate at 3000 rpm for 5 mins • Step 5: Add 50 μL 0.1% Formic acid in UP H2O to wells of a new 96-well plate • Step 6: Transfer 50 μL extracted sample to relevant position in second 96-well plate • Step 7: Mix at 1200 rpm for 2 minutes • Step 8: Heat seal and analyse on the LC-MS/MS system • Instrument: Xevo TQ-D with CTC Autosampler
# • Step 1: A stock solution of the compound(s) were prepared to 1 mg/ml in DMSO • Step 2: A 10,000 ng/mL matched matrix standard was prepared using the stock solution(s) • Step 3: A 2,000 ng/ml matched matrix stock dilution was made from the 10,000 ng/ml stock dilution • Step 4: Standards were prepared at a concentration of 200 ng/ml to 0.01 ng/ml in matched matrix via serial dilution from the second Stock dilution • Step 5: QC samples were prepared in matched matrix at 150, 40, 20, 4 and 0.4 ng/mL Calibration Standards:
# as §4, with “min” for “mins”, “formic” for “Formic”, “min” for “minutes”, “TQ-Absolute UHPLC-MS/MS” for “TQ-D with CTC Autosampler”
# as §2, with “0.5” for “2.5 mg free metabolite material/mL or 1.75”, “1” for “5”, “metabolite/kg” for “metabolite/kg or 3.5 mg free metabolite/kg, respectively,”
# as §3
# Dose formulations were made at equivalent concentrations of active compound (xanomeline) adjusted for molecular weight of the compounds. The synthesized xanomeline prodrugs were dosed at 1 mg/kg subcutaneous (SC) nominal dose. […]
# [3] = Rat PK: plasma xanomeline after oral (PO) dosing of xanomeline or xanomeline prodrugs at 10 mg/kg (Example A-7); conditions: analyte xanomeline in plasma, 10 mg/kg of xanomeline
# Description: as §1, with “format and QC'd.” for “format.”
# Compound was dissolved in DMSO:HPCD (20% w/v in water) [10:90] 2 mg API/mL to provide doses of 10 mg API/kg when administered PO in 5 mL/kg dosing volumes.
# as §3, with “oral” for “subcutaneous”
# Dose formulations were made at equivalent concentrations of active compound (xanomeline) adjusted for molecular weight of the compounds. The synthesized xanomeline prodrugs were dosed at 10 mg/kg oral (PO) nominal dose. Nominal doses were used in PK parameter determinations. The parent compound (xanomeline) was dosed at 10 mg/kg oral (PO).
# [4] = male, Sprague-Dawley, plasma, sc, Mean of animals (Table 3)
# [5] = male, Sprague-Dawley, plasma, sc, individual animal (Table 3)
compound,measurement,setting,value
"CCCCCCOc1nsnc1C1=CCCN(C)C1 [Xanomeline, 3-hexyloxy-4-(1-methyl-3,6-dihydro-2H-pyridin-5-yl)-1,2,5-thiadiazole]",Tmax,"[1]; in vivo, individual animals",60 min
same,Cmax,"[1]; plasma, sc, Mean",43 ng/mL
same,Tmax,"[1]; plasma, sc, Mean",50 min
same,AUC(0-inf),"[1]; plasma, sc, Mean",154 ng·h/mL
same,AUC(0-t),"[1]; plasma, sc, Mean",171 ng·h/mL
same,half-life,"[1]; plasma, sc, Mean",82.2 min
same,Cmax,"[1]; plasma, sc, individual animals",54.6 ng/mL
same,Tmax,"[1]; plasma, sc, individual animals",30 min
same,AUC(0-inf),"[1]; plasma, sc, individual animals",185 ng·h/mL
same,AUC(0-t),"[1]; plasma, sc, individual animals",180 ng·h/mL
same,half-life,"[1]; plasma, sc, individual animals",90 min
same,Xanomeline (SC) Tlast,[1]; Mean,37.3 h
same,Xanomeline (SC) AUC0-inf,[1]; individual animals,123 ng·h/mL
same,Xanomeline (SC) AUC0-last,[1]; individual animals,213 ng·h/mL and 121 ng·h/mL
same,Xanomeline (SC) Cmax,[1]; individual animals,30.0 ng/mL and 44.4 ng/mL
same,Xanomeline (SC) T1/2,[1]; individual animals,1.24 h
same,Xanomeline (SC) Tlast,[1]; individual animals,8.00 h (2×) and 96.0 h
same,Tmax,"[2]; male, Sprague-Dawley, in vivo, individual animal (Table 3)",15 min
same,AUC(0-t),[2]; [4],38.3 ng·h/mL
same,AUC(0-inf),[2]; [4],42 ng·h/mL
same,Cmax,"[2]; male, Sprague-Dawley, plasma, sc, Mean of animals (Table 3), read-out: Cmax",14.4 ng/mL
same,half-life,[2]; [4],111 min
same,AUC(0-t),[2]; [5],40.1 ng·h/mL
same,AUC(0-inf),[2]; [5],46 ng·h/mL
same,Cmax,"[2]; male, Sprague-Dawley, plasma, sc, individual animal (Table 3), read-out: Cmax",15.9 ng/mL
same,half-life,[2]; [5],138 min
same,Tmax,"[2]; male, Sprague-Dawley, Mean of animals (Table 3)",15 min
same,Tlast,[2]; Mean of animals (Table 3),7.00 h
same,AUCINF_obs,[2]; individual animal (Table 3),42.9 ng·h/mL and 37.0 ng·h/mL
same,AUClast,[2]; individual animal (Table 3),40.0 ng·h/mL and 34.9 ng·h/mL
same,Cmax,[2]; individual animal (Table 3),15.1 ng/mL and 12.3 ng/mL
same,Tlast,[2]; individual animal (Table 3),7.00 h
same,T½,[2]; individual animal (Table 3),1.66 h and 1.58 h
xanomeline methyl hexylcarbonate chloride prodrug,Xanomeline Tlast,[3]; Mean of 3 animals,2.67 h
same,Xanomeline Tlast,"[3]; individual animal, 10 mg/kg",1.00 h and 7.00 h
